Test results: BindingDB's records for doi:10.1016/j.bmcl.2016.04.011 (The University of Jordan, 2016)

Key:
[1] = Inhibition of EGFR in human MDA231 cells assessed as growth inhibition after 24 hrs by MTT assay
[2] = Inhibition of PI3Kalpha in human HCT116 cells coexpressing PI3Kalpha H1047R mutant assessed as growth inhibition after 24 hrs by MTT assay

SMILES | IC50 [1] [µM] | IC50 [2] [µM]
O=C(c1ccccc1)c1ccc(NC(=O)c2cc3ccccc3[nH]2)cc1 | 49 | 54
O=C(c1ccccc1)c1cccc(NC(=O)c2cc3ccccc3[nH]2)c1 | 45 | 55
O=C(Nc1cccc(C(O)c2ccccc2)c1)c1cc2ccccc2[nH]1 (stereo unspecified) | 15 | 19
CC(O)c1cccc(NC(=O)c2cc3ccccc3[nH]2)c1 (stereo unspecified) | 34 | 38
CC(O)c1ccc(NC(=O)c2cc3ccccc3[nH]2)cc1 (stereo unspecified) | 35 | 37
CC(=O)c1ccc(NC(=O)c2cc3ccccc3[nH]2)cc1 | 50 | 61
O=C(Nc1ccc(C(O)c2ccccc2)cc1)c1cc2ccccc2[nH]1 (stereo unspecified) | 38 | 44
CC(=O)c1cccc(NC(=O)c2cc3ccccc3[nH]2)c1 | 57 | 64
